Experimental data from patent publication US10100088B2, “Glycopeptide derivatives for the preservation and protection of biological materials and microorganisms” (TFCHEM, priority 2014, dated 2018).
Where two headings read alike, the source gives them in different places.

Key:
[1] = tested on: human neonatal skin fibroblasts; settings: for Lysis following bacterial stress at 48 h (OD490 nm): LDH release
Experimental: The medium was changed every two days by 37° C. preheated fresh medium.

[2] = Comparative stability towards basic conditions (NaOD in D2O), 1H NMR; format: physicochemical
Experimental: In a first set of experiments (experiments 1 to 7 in table 9), X (10 mg, 1.72 10^−2 mmol) was reacted with 2 to 8 equivalents of NaOD in a total volume of 355 μL of deuterium oxide ([X]=4.8 10^−2 mmol·mL^−1) during 2 h 30 before being acidified with 1M DCl in D2O. To be sure that all compounds in solution are in their acidic form, the equivalents of DCl are adjusted to 3 more equivalents of DCl than the amount required to neutralize the solution (nDCl=nNaOD+3). The volume was adjusted to 544 μL with deuterium oxide.
In a second set of experiments (experiments 8 to 14 in table 9), 17 (10 mg, 1.66 10^−2 mmol) was reacted with 2 to 8 equivalents of NaOD in a total volume of 343 μL of deuterium oxide ([17]=4.8 10^−2 mmol·mL^−1) during 2 h 30 before being acidified with 1M DCl in D2O. To be sure that all compounds in solution are in their acidic form, the equivalents of DCl are adjusted to 3 more equivalents of DCl than the amount required to neutralize the solution (nDCl=nNaOD+3). The volume was adjusted to 526 μL with deuterium oxide.
^1H NMR analyses were performed on each experiment. It is why experiments were realized in deuterium oxide and using 1M NaOD in D2O as base and 1M DCl in D2O as acid.
^1H NMR allows indeed the determination of the amount of compound X1 formed, by comparison between the integration corresponding to the methylene group of the lysine side chain connected to the nitrogen atom in X (CH2NGP) (3.3 ppm) and the integrationof the same methylene group in X1 (CH2Lys hydrolyzed) (3.0 ppm).
To confirm the structure of compounds X1 and X2, resulting from hydrolysis of X, the following experiment was realized, in which X (10 mg, 1.72 10^−2 mmol) was reacted with 8 equivalents of NaOD in a total volume of 355 μL of deuterium oxide ([X]=4.8 10^−2 mmol·mL^−1) during 3 days before being acidified with 1M DCl in D2O. In these conditions, almost the totality of compound X is hydrolyzed, the percentage of hydrolysis of compound X being 85% as determined by ^1H NMR as evidence in table 11.

[3] = tested on: neonatal skin fibroblasts (CCD-27SK, ATCC CRL-1475); settings: for Percentage of viability: 5 mg/mL in serum free medium
Experimental: II-1. Effect of Glycopeptide 17 on the Preservation/Protection of Neonatal Skin Fibroblasts Under Starvation Conditions. Evaluation by Trypan Blue Exclusion Method.
• The neonatal skin fibroblasts (Cell line: CCD-27SK, ATCC number CRL-1475) were grown with DMEM medium supplemented with Fetal Bovine Serum 10% final, antibiotics (Penicillin/Streptomycin) 1% final and Amphotericin B 0.1% final. • Fibroblasts were grown in 75 cm^2 culture flask to 80% confluence, in 37° C. and 10% CO2 incubator. The medium was changed every two days by 37° C. preheated fresh medium. Starvation Medium • This medium was composed of 45% subculturing medium without Fetal Bovine Serum mixed with 55% of Phosphate Buffer Saline 1× containing EDTA (final concentration of 0.45 mM). This was referred to as serum-free medium. Product Preparation • Compound 17 (MM=603.4 g/mol) was diluted in starvation medium to 5 mg/ml final and pH was adjusted at 7.4 by addition of NaOH 1N. General Experimental Procedure Assays on 96 Well Plates • Fibroblast cells were concentrated to 2.10^5 cells/ml and 100 μl of cell suspension was added in wells of a 96-well plate and incubated in 37° C. and 10% CO2 incubator for 4 hours. • After cell adhesion the medium was changed and plates were incubated (37° C.-10% CO2) to perform the assay as follow: • One plate for each sampling times: D0, D3, D4, D5, D6, D7, D10, D12 days • Three wells for each condition (triplicate count) added with 120 μl of culture medium (surviving control), starvation medium (serum-free control) or compound 17 solution at 5 mg/ml. […] So, only the dead cells are blue at microscopic observation. • For sampling, 110 μl of Trypan Blue (SIGMA T8154) was added to 110 μl of trypsinated cell suspension of matching well for counting. • […] of the trypan blue/cell mixture are dropped to a hemacytometer. Cells are counting by using a Neubauer-counting chamber. The unstained (viable) and stained (nonviable) cells are counted separately on 9 areas of 1 mm^2 forming a large square of 9 mm^2 and added to obtain the total number of cells per sample. An average of three counts was used to calculate the viability percentage as: [Number of viable cells/total number of cells]*100 • The cell viability percentages from cultures under starvation conditions were compared with control culture for several days after their addition (D0, D3, D4, D5, D6, D7, D10, D12).

C[C@H](NC(=O)[C@H](C)NC(=O)[C@@H](N)CCCCNCC(F)(F)C1(O)O[C@H](CO)[C@H](O)[C@H](O)[C@H]1O)C(=O)O.Cl.Cl (stereo partly drawn) [Compound 17]
Lysis following bacterial stress at 48 h (OD490 nm) ([1]; 5 mg/mL): 0.333 ± 0.003 OD490 nm
protective effect against bacterial stress (in words) ([1]; 5 mg/ml to 15 mg/ml): protective effect on cells against bacterial stress
Lysis following bacterial stress at 48 h (OD490 nm) ([1]; 10 mg/mL): 0.293 ± 0.002 OD490 nm
Lysis following bacterial stress at 48 h (OD490 nm) ([1]; 15 mg/mL): 0.270 ± 0.005 OD490 nm
% hydrolyzed ([2]; 2 eq NaOD, 2 h 30, D2O): 0%
stability towards basic conditions (in words) ([2]; 2 to 8 eq NaOD, 2 h 30, 1H NMR): absence of degradation
% hydrolyzed ([2]; 3 eq NaOD, 2 h 30, D2O): 0%
% hydrolyzed ([2]; 4 eq NaOD, 2 h 30, D2O): 0%
% hydrolyzed ([2]; 5 eq NaOD, 2 h 30, D2O): 0%
% hydrolyzed ([2]; 6 eq NaOD, 2 h 30, D2O): 0%
% hydrolyzed ([2]; 7 eq NaOD, 2 h 30, D2O): 0%
% hydrolyzed ([2]; 8 eq NaOD, 2 h 30, D2O): 0%
% hydrolyzed ([2]; Control, 0 eq NaOD): 0%
Percentage of viability ([3]; D 0): 96.69 ± 1.85%
Percentage of viability ([3]; D 0, listed as compound 17): 97%
Percentage of viability ([3]; D 3): 91.03 ± 1.88%
Percentage of viability ([3]; D 4): 88.98 ± 2.48%
Percentage of viability ([3]; D 5): 86.65 ± 4.26%
Percentage of viability ([3]; D 6): 85.53 ± 1.57%
Percentage of viability ([3]; D 7): 83.20 ± 3.72%
Percentage of viability ([3]; D 10): 80.62 ± 3.72%
Percentage of viability ([3]; D 12): 77.03 ± 2.02%
Percentage of viability ([3]; D 12, listed as compound 17): 77%
preservative/protective effect on skin fibroblasts (in words) ([3]; starvation medium, 5 mg/ml, 12 days): significant preservative/protective effect
